# Reference: the supplement of paper PMC11208160
# Assay: recombinant UMI read abundance after kanamycin selection (control-corrected) (log10(CPM+1)); higher = more efficient recombination; extreme values may be limits of the assay; sequences stand for … in AGTGCAGAGAAAATCGGCCAGTTTTCTCTGCCTGCAGTCCGCATGCCGTGGGACCCCTTGGGTTCTAACCTGTTGCCTAGATTTATGCAGCGGACTGCCTTTCTCCCAAAGTGATAAACCGG…AGGTTGGTTTCACT; site = the 11-nt donor
# How it was run: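 The measure is log10(CPM+1) for recombinant UMIs. These were PCR-amplified across the donor–target junction and sequenced after Escherichia coli carrying a donor and donor-binding-loop pair library and a target plasmid with T7-inducible IS621 bridge recombinase was plated on IPTG (0.07 mM) plus kanamycin or unselected. CPM were averaged over two replicates and scaled by control-derived factors.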
# 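Also: IS621 bridge recombinase in Escherichia coli cells against a fixed T5 target plasmid.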
row,Sequence,recombinant UMI read abundance (log10)
1,CGGACATCATGGACCGGTTTTCCCGGTAATCCGTATTTGAT (site CGGACATCTAC),0.605
2,CGGACATCATGGACCGGTTTTCCCGGTAATCCGTATTTGAT (site CGGACATCTAG),0
3,CGGACATCATGGACCGGTTTTCCCGGTAATCCGTATTTGAT (site CGGACATCTAT),1.84
4,CGGACATCATGGACCGGTTTTCCCGGTAATCCGTATTTGCC (site CGGACATCTAG),0.305
5,CGGACATCATGGACCGGTTTTCCCGGTAATCCGTATTTGCC (site CGGACATCTCG),0.00908
6,CGGACATCATGGACCGGTTTTCCCGGTAATCCGTATTTGCC (site CGGACATCTGG),2.66
7,CGGACATCATGGACCGGTTTTCCCGGTAATCCGTATTTGCC (site CGGACATCTTG),0
8,CGGACATCATGGACCGGTTTTCCCGGTAATCCGTATTTGCT (site AGGACATCTAG),0.695
9,CGGACATCATGGACCGGTTTTCCCGGTAATCCGTATTTGCT (site CAGACATCTAG),1.53
10,CGGACATCATGGACCGGTTTTCCCGGTAATCCGTATTTGCT (site CCGACATCTAG),0.954
11,CGGACATCATGGACCGGTTTTCCCGGTAATCCGTATTTGCT (site CGAACATCTAG),1.51
12,CGGACATCATGGACCGGTTTTCCCGGTAATCCGTATTTGCT (site CGCACATCTAG),0
13,CGGACATCATGGACCGGTTTTCCCGGTAATCCGTATTTGCT (site CGGAAATCTAG),0
14,CGGACATCATGGACCGGTTTTCCCGGTAATCCGTATTTGCT (site CGGACAACTAG),0.552
15,CGGACATCATGGACCGGTTTTCCCGGTAATCCGTATTTGCT (site CGGACACCTAG),0
16,CGGACATCATGGACCGGTTTTCCCGGTAATCCGTATTTGCT (site CGGACAGCTAG),0.00346
17,CGGACATCATGGACCGGTTTTCCCGGTAATCCGTATTTGCT (site CGGACATCTAA),0
18,CGGACATCATGGACCGGTTTTCCCGGTAATCCGTATTTGCT (site CGGACATCTAC),0
19,CGGACATCATGGACCGGTTTTCCCGGTAATCCGTATTTGCT (site CGGACATCTAG),2.42

row,Sequence,recombinant UMI read abundance (log10)
1,CGGACATCATGGACCGGTTTTCCCGGTAATCCGTATTTGCT (site CGGACATCTAT),1.21
2,CGGACATCATGGACCGGTTTTCCCGGTAATCCGTATTTGCT (site CGGACATCTCG),0.0134
3,CGGACATCATGGACCGGTTTTCCCGGTAATCCGTATTTGCT (site CGGACATCTGG),0.0128
4,CGGACATCATGGACCGGTTTTCCCGGTAATCCGTATTTGCT (site CGGACATCTTG),0.756
5,CGGACATCATGGACCGGTTTTCCCGGTAATCCGTATTTGCT (site CGGACCTCTAG),0.303
6,CGGACATCATGGACCGGTTTTCCCGGTAATCCGTATTTGCT (site CGGACGTCTAG),0
7,CGGACATCATGGACCGGTTTTCCCGGTAATCCGTATTTGCT (site CGGACTTCTAG),0.255
8,CGGACATCATGGACCGGTTTTCCCGGTAATCCGTATTTGCT (site CGGAGATCTAG),0
9,CGGACATCATGGACCGGTTTTCCCGGTAATCCGTATTTGCT (site CGGATATCTAG),1.9
10,CGGACATCATGGACCGGTTTTCCCGGTAATCCGTATTTGCT (site CGGCCATCTAG),0.0134
11,CGGACATCATGGACCGGTTTTCCCGGTAATCCGTATTTGCT (site CGGGCATCTAG),0
12,CGGACATCATGGACCGGTTTTCCCGGTAATCCGTATTTGCT (site CGGTCATCTAG),0.746
13,CGGACATCATGGACCGGTTTTCCCGGTAATCCGTATTTGCT (site CGTACATCTAG),1.54
14,CGGACATCATGGACCGGTTTTCCCGGTAATCCGTATTTGCT (site CTGACATCTAG),1.34
15,CGGACATCATGGACCGGTTTTCCCGGTAATCCGTATTTGCT (site GGGACATCTAG),0
16,CGGACATCATGGACCGGTTTTCCCGGTAATCCGTATTTGCT (site TGGACATCTAG),0.773
17,CGGACGACATGGACCGGTTTTCCCGGTAATCCGTATTTGGT (site CGGACGACTAC),1.25
18,CGGACTGCATGGACCGGTTTTCCCGGTAATCCGTATTTGTT (site CGGAATCCTAA),0
19,CGGACTGCATGGACCGGTTTTCCCGGTAATCCGTATTTGTT (site CGGACTGCTAA),2.12

row,Sequence,recombinant UMI read abundance (log10)
1,CGGACTTCATGGACCGGTTTTCCCGGTAATCCGTATTTGCT (site CGGACATCTAG),0.905
2,CGGACTTCATGGACCGGTTTTCCCGGTAATCCGTATTTGCT (site CGGACCTCTAG),1.61
3,CGGACTTCATGGACCGGTTTTCCCGGTAATCCGTATTTGCT (site CGGACGTCTAG),0
4,CGGACTTCATGGACCGGTTTTCCCGGTAATCCGTATTTGCT (site CGGACTTCTAG),2.17
5,CGGAGTACATGGACCGGTTTTCCCGGTAATCCGTATTTGTT (site CGGAATCCTAA),0
6,CGGAGTACATGGACCGGTTTTCCCGGTAATCCGTATTTGTT (site CGGAGTACTAA),2.14
7,CGGAGTCCATGGACCGGTTTTCCCGGTAATCCGTATTTGAT (site CGGAATCCTAA),0.0131
8,CGGAGTCCATGGACCGGTTTTCCCGGTAATCCGTATTTGAT (site CGGAGTCCTAT),1.98
9,CGGATATCATGGACCGGTTTTCCCGGTAATCCGTATTTGCT (site CGGAAATCTAG),0
10,CGGATATCATGGACCGGTTTTCCCGGTAATCCGTATTTGCT (site CGGACATCTAG),0
11,CGGATATCATGGACCGGTTTTCCCGGTAATCCGTATTTGCT (site CGGAGATCTAG),0
12,CGGATATCATGGACCGGTTTTCCCGGTAATCCGTATTTGCT (site CGGATATCTAG),1.51
13,CGGATGTCATGGACCGGTTTTCCCGGTAATCCGTATTTGTG (site CGGATGTCTCA),2.74
14,CGGATTCCATGGACCGGTTTTCCCGGTAATCCGTATTTGTT (site CGGAATCCTAA),0.00458
15,CGGATTCCATGGACCGGTTTTCCCGGTAATCCGTATTTGTT (site CGGACTCCTAA),0.0161
16,CGGATTCCATGGACCGGTTTTCCCGGTAATCCGTATTTGTT (site CGGAGTCCTAA),0.0137
17,CGGATTCCATGGACCGGTTTTCCCGGTAATCCGTATTTGTT (site CGGATTCCTAA),0.599
18,CGGCAGGCATGGACCGGTTTTCCCGGTAATCCGTATTTGAT (site CGGCAGGCTAT),2.21
19,CGGCATCCATGGACCGGTTTTCCCGGTAATCCGTATTTGGT (site CGGAATCCTAA),0
